Results as given in PubChem BioAssay (NCI).
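Interpolation was linear, between the two tested concentrations surrounding the appropriate level; five concentrations were tested over 48 hours in 96-well plates. Here, GI50 denotes the concentration required for 50% inhibition of growth. At the TGI there is no net growth.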

What was measured:
Experiment in all cases: growth of human tumour cells (NCI), 48 h
A549 NSCLC = test system: A549 NSCLC
CAKI-1 renal = test system: CAKI-1 renal
COLO 205 colon = test system: COLO 205 colon
HCT-116 colon = test system: HCT-116 colon
HOP-62 NSCLC = test system: HOP-62 NSCLC
IGROV1 ovarian = test system: IGROV1 ovarian
MOLT-4 leukemia = test system: MOLT-4 leukemia
OVCAR-3 ovarian = test system: OVCAR-3 ovarian
OVCAR-8 ovarian = test system: OVCAR-8 ovarian
SNB-19 CNS = test system: SNB-19 CNS
SW-620 colon = test system: SW-620 colon

Row | Structure (SMILES) | TGI (A549 NSCLC) | TGI (CAKI-1 renal) | TGI (COLO 205 colon) | TGI (HCT-116 colon) | TGI (HOP-62 NSCLC) | TGI (IGROV1 ovarian) | TGI (MOLT-4 leukemia) | TGI (OVCAR-3 ovarian) | TGI (OVCAR-8 ovarian) | TGI (SNB-19 CNS) | TGI (SW-620 colon) | GI50 (A549 NSCLC) | GI50 (CAKI-1 renal) | GI50 (HOP-62 NSCLC) | GI50 (IGROV1 ovarian) | GI50 (OVCAR-3 ovarian) | GI50 (OVCAR-8 ovarian) | GI50 (SNB-19 CNS) | GI50 (SW-620 colon)
1 | Cc1ccc(-c2cc(-c3ccc(Cl)cc3)nc(/N=C3\C(=O)N(CN4CCOCC4)c4ccccc43)n2)cc1 | 39.7 µM | 80 µM | 79.8 µM | 93.9 µM | > 100 µM | 39.3 µM | 35.8 µM | > 100 µM | 50.8 µM | 42.2 µM | 62.8 µM | – | – | – | – | – | – | – | –
2 | COC(=O)C(=O)C(C(=O)C1=NS(=O)(=O)c2cc(S(N)(=O)=O)c(Cl)cc2N1)c1nc2ccc(C(=O)c3ccccc3)cc2[nH]c1=O (centres undefined) | > 100 µM | > 100 µM | > 100 µM | > 100 µM | – | > 100 µM | > 100 µM | – | > 100 µM | > 100 µM | > 100 µM | – | – | – | – | – | – | – | –
3 | CC(N)C(=O)OCN1C(=O)C2C3C=CC(C2C1=O)C1C2C(=O)N(COC(=O)C(C)N)C(=O)C2C31 (centres undefined) | 77.7 µM | > 100 µM | 35.1 µM | 44.9 µM | > 100 µM | > 100 µM | 51.8 µM | 91.5 µM | 47.8 µM | > 100 µM | 47.4 µM | – | – | – | – | – | – | – | –
4 | CCN1CCN(c2nc3ccccc3nc2C(=O)c2ccc(OC)cc2)CC1 | > 100 µM | > 100 µM | > 100 µM | 36.7 µM | 55.5 µM | > 100 µM | > 100 µM | > 100 µM | > 100 µM | > 100 µM | > 100 µM | – | – | – | – | – | – | – | –
5 | C=C1C(=O)OC2/C=C(\C)C3OC3/C=C(/C(=O)OC)C(O)C(OC(=O)C3(C)OC3C)C12 (centres undefined) | 32 µM | 4.97 µM | 2.52 µM | 2.43 µM | 35.8 µM | 8.45 µM | 4.05 µM | 10 µM | 5.85 µM | – | 3.1 µM | – | – | – | – | – | – | – | –
6 | CS/C(C#N)=C(\C#N)SC | > 100 µM | 22.3 µM | > 100 µM | > 100 µM | > 100 µM | 43.8 µM | 4.77 µM | 4.88 µM | 6.06 µM | 65.9 µM | > 100 µM | – | – | – | – | – | – | – | –
7 | Cc1ccccc1[P+](C)(c1ccccc1C)c1ccccc1C | 55.4 µM | – | 22.4 µM | 38.5 µM | 71.8 µM | 33 µM | – | 23.6 µM | 45.4 µM | 37.4 µM | 39.1 µM | – | – | – | – | – | – | – | –
8 | CN(C)CC1CCCC(CN2CCCCC2)C1=O (centres undefined) | > 76.4 µM | 3.73 µM | 7.03 µM | 7.53 µM | > 100 µM | 35.5 µM | 12.5 µM | 17.1 µM | 31.5 µM | > 100 µM | 3.74 µM | – | – | – | – | – | – | – | –
9 | [O-]c1c[n+](CCCC[n+]2cc([O-])on2)no1 | > 100 µM | > 100 µM | > 100 µM | > 100 µM | > 100 µM | > 100 µM | > 100 µM | > 100 µM | > 100 µM | > 100 µM | > 100 µM | – | – | – | – | – | – | – | –
10 | CC1=C(C#N)C23C(=O)c4ccccc4C(O)=C2C(=O)C=CC3(O)N1 (centres undefined) | > 100 µM | 23.3 µM | > 100 µM | > 100 µM | 51 µM | 17.2 µM | > 100 µM | > 100 µM | > 100 µM | 25.5 µM | 12.6 µM | – | – | – | – | – | – | – | –
11 | Cn1cc(-c2csc(-c3cn(C)c4ccc(Br)cc34)n2)c2cnccc21 | 3.48 µM | 3.22 µM | – | – | 3.49 µM | 3.28 µM | – | 3.49 µM | 3.61 µM | 3.26 µM | 3.48 µM | 1.83 µM | 1.77 µM | 1.9 µM | 1.76 µM | 1.89 µM | 1.9 µM | 1.73 µM | 1.85 µM
12 | Oc1cccc(-c2ccc3c4c2O[C@H]2c5[nH]c6ccccc6c5C[C@@]5(O)[C@@H](C3)N(CC3CC3)CC[C@]425)c1 | 3.22 µM | 3.41 µM | 5.92 µM | 3.22 µM | – | 3.12 µM | – | 3.42 µM | 3.23 µM | 3 µM | 6.15 µM | – | – | – | – | – | – | – | –
13 | Cc1cccc(O)c1-c1nnc(CCCCCCCCc2nnc(-c3c(C)cccc3O)n2N)n1N | > 100 µM | > 100 µM | > 31.6 µM | > 100 µM | 62 µM | > 100 µM | > 42.1 µM | > 100 µM | – | > 100 µM | > 100 µM | – | – | – | – | – | – | – | –
14 | O=c1oc2ccccc2n1P(=O)(n1c(=O)oc2ccccc21)n1c(=O)oc2ccccc21 | > 100 µM | > 100 µM | > 100 µM | > 100 µM | > 100 µM | > 100 µM | > 100 µM | > 100 µM | – | > 100 µM | > 100 µM | – | – | – | – | – | – | – | –
15 | CC(=O)OCc1ccc2oc(=O)c(C(=O)Oc3cccc(Cl)c3)cc2c1 | > 100 µM | > 100 µM | 94.4 µM | 54.5 µM | > 100 µM | > 100 µM | > 100 µM | > 100 µM | > 100 µM | > 100 µM | > 100 µM | – | – | – | – | – | – | – | –
16 | CO[C@H]1ON=C(c2c(C)cc(C)cc2C)[C@@H]1C1(c2ccccc2)ON=C(c2c(C)cc(C)cc2C)O1 (some centres undefined) | > 100 µM | – | > 100 µM | > 100 µM | – | > 100 µM | > 100 µM | – | > 100 µM | > 100 µM | > 100 µM | – | – | – | – | – | – | – | –
17 | NC(=O)c1ccc(NS(=O)(=O)c2ccc(N)cc2)nc1 | – | > 100 µM | > 100 µM | > 100 µM | > 100 µM | > 100 µM | > 100 µM | > 100 µM | > 100 µM | > 100 µM | > 100 µM | – | – | – | – | – | – | – | –
18 | CN1C(=O)CN2C(Cl)(Cl)C2(c2ccccc2F)c2cc([N+](=O)[O-])ccc21 (centres undefined) | – | > 100 µM | > 100 µM | > 100 µM | > 100 µM | > 100 µM | 57.2 µM | > 100 µM | > 100 µM | – | > 100 µM | – | – | – | – | – | – | – | –
19 | CN(C)CCCNC(=O)c1cc(NC(=O)c2cc(NS(=O)(=O)c3ccc4c(c3)C(=O)c3ccccc3C4=O)cn2C)cn1C | > 100 µM | > 100 µM | > 100 µM | > 100 µM | > 100 µM | > 100 µM | > 100 µM | > 100 µM | > 100 µM | > 100 µM | > 100 µM | – | – | – | – | – | – | – | –
20 | CCN1C(=S)n2cccc2C1CC(=O)c1ccc(Cl)cc1 (centres undefined) | > 100 µM | > 100 µM | – | > 100 µM | > 100 µM | > 100 µM | 90.1 µM | > 100 µM | > 100 µM | > 100 µM | > 100 µM | – | – | – | – | – | – | – | –
21 | C1CCC(OCc2nnn3c2CCC3)OC1 (centres undefined) | > 100 µM | – | – | > 100 µM | > 100 µM | > 100 µM | > 100 µM | > 100 µM | > 100 µM | – | > 100 µM | – | – | – | – | – | – | – | –
22 | O=Nc1c(-c2c(O)[nH]c3ccccc23)[nH]c2ccccc12 | > 55.1 µM | 41 µM | 34.8 µM | > 29.6 µM | > 48.6 µM | 22 µM | > 100 µM | > 89.7 µM | > 45.5 µM | > 100 µM | > 100 µM | – | – | – | – | – | – | – | –
23 | COc1ccc(CC2c3cc(OC)c(OC)c(OC)c3CC[N+]2(C)C)cc1Oc1ccc(CC2c3cc4c(c(OC)c3CC[N+]2(C)C)OCO4)cc1 (centres undefined) | > 100 µM | > 100 µM | > 100 µM | > 100 µM | – | > 100 µM | > 100 µM | – | > 100 µM | > 100 µM | > 100 µM | – | – | – | – | – | – | – | –
24 | Nc1ccc(Oc2ccc(C3(c4ccc(Oc5ccc(N)cc5)cc4)C4CC5C6CC7CC5C3C(C7)C6C4)cc2)cc1 | > 100 µM | > 100 µM | > 100 µM | > 100 µM | > 100 µM | > 100 µM | > 100 µM | > 100 µM | > 100 µM | > 100 µM | > 100 µM | – | – | – | – | – | – | – | –
25 | C[C@H]1C(=O)O[C@@H]1[C@H]1COC(C)(C)O1 | > 100 µM | > 100 µM | – | – | > 100 µM | – | > 100 µM | > 100 µM | > 100 µM | > 100 µM | > 100 µM | – | – | – | – | – | – | – | –
26 | Cc1nc2c(O)cc3c4c(=O)n(C)c(=O)n(C)c4n(Cc4ccccc4)c3c2nc1C | 36.2 µM | – | 28 µM | 52.1 µM | 33.6 µM | – | 70.1 µM | – | 33.1 µM | 34.4 µM | 44.2 µM | – | – | – | – | – | – | – | –
27 | Nc1nc(Cl)cc(NCCCNc2cc(Cl)nc(N)n2)n1 | > 100 µM | – | > 100 µM | > 100 µM | > 100 µM | > 100 µM | > 100 µM | > 100 µM | > 100 µM | – | > 100 µM | – | – | – | – | – | – | – | –
28 | c1ccc(CSc2ccccc2CN2CCN(Cc3ccccc3SCc3ccccc3)CCN(Cc3ccccc3SCc3ccccc3)CC2)cc1 | 10.1 µM | 11.3 µM | 2.21 µM | 2.03 µM | 3.82 µM | – | 6.26 µM | 1.82 µM | 2.67 µM | 5.19 µM | 69.2 µM | – | – | – | – | – | – | – | –
29 | CCCCC(C(=O)N/N=C/c1ccc([N+](=O)[O-])o1)C(=O)N/N=C/c1ccc([N+](=O)[O-])o1 | 41.4 µM | 14.7 µM | 14.7 µM | 2.9 µM | 28.8 µM | 4.22 µM | 7.72 µM | 5.65 µM | 5.89 µM | 13.7 µM | 6.71 µM | – | – | – | – | – | – | – | –
